Results published in ChEMBL document CHEMBL4330184, “Aryl Substituted Benzimidazolones as Potent HIV-1 Non-Nucleoside Reverse Transcriptase Inhibitors” (ACS Med Chem Lett, 2019).

Experiments:
[1] = Cytotoxicity against HEK293T cells assessed as reduction in cell viability after 48 hrs by CellTiter 96 aqueous one solution assay; type: cell-based, HEK-293T; conditions: human
[2] = test system: Human immunodeficiency virus 1; assay: Selectivity ratio of IC50 for HIV1 reverse transcriptase V106M mutant in HIV1 infected HEK293T cells to IC50 for wild-type HIV1 reverse transcriptase in HIV1 infected HEK293T cells
[3] = test system: Human immunodeficiency virus 1; assay: Selectivity ratio of IC50 for HIV1 reverse transcriptase K103N mutant in HIV1 infected HEK293T cells to IC50 for wild-type HIV1 reverse transcriptase in HIV1 infected HEK293T cells
[4] = test system: Human immunodeficiency virus 1; assay: Selectivity ratio of IC50 for HIV1 reverse transcriptase Y181C mutant in HIV1 infected HEK293T cells to IC50 for wild-type HIV1 reverse transcriptase in HIV1 infected HEK293T cells

| Structure (SMILES) | CC50 at 48 h [1] [µM] | other results |
| --- | --- | --- |
| CCn1c(=O)[nH]c2cccc(Oc3cc(Cl)cc(C#N)c3)c21 | 24.1 | Ratio IC50 [2]: > 10 |
| CCC(c1ccccc1)n1c(=O)[nH]c2ccc(Cl)cc21 (racemic) | 55 | Ratio IC50 [3]: > 10; Ratio IC50 [4]: > 10 |
| CC1(C)OC(=O)Nc2cccc(Oc3cc(Cl)cc(C#N)c3)c21 | 82.7 |  |
| CCn1c(=O)[nH]c2cccc(Oc3cc(C#N)cc(C#N)c3)c21 | 96.6 |  |
| CCCn1c(=O)[nH]c2cccc(Oc3cc(Cl)cc(C#N)c3)c21 | 24.8 |  |
| CCn1c(=O)[nH]c2cccc(Oc3ccccc3)c21 | 55 |  |
| CCn1c(=O)[nH]c2cccc(Oc3ccnc(C#N)c3)c21 | > 100 |  |
| CCn1c(=O)[nH]c2cccc(Oc3cccc4ccccc34)c21 | 31.3 |  |
| Cc1ccnc2c1NC(=O)c1cccnc1N2C1CC1 [NEVIRAPINE] | 92.7 |  |
| CCn1c(=O)[nH]c2cccc(Oc3cc(C)cc(C)c3)c21 | 7.16 |  |
| CCn1c(=O)[nH]c2cccc(Oc3cc(C#N)cc(/C=C/C#N)c3)c21 | 9.7 |  |
| CCn1c(=O)[nH]c2cccc(Oc3ccnc(Cl)c3)c21 | 95.1 |  |
| Cn1c(=O)[nH]c2cccc(Oc3cc(Cl)cc(C#N)c3)c21 | 53.4 | Ratio IC50 [2]: > 10 |
| CCn1c(=O)[nH]c2cccc(Oc3cc(C#N)ccn3)c21 | > 100 |  |
